Measured values from ChEMBL document CHEMBL1671859, “bla(IMP-4) in different genetic contexts in Enterobacteriaceae isolates from Australia” (2008).
Values after ≈ are worked out from the molar mass of the structure shown.

What was measured:
Type in all cases: functional
[1] = tested on: Klebsiella pneumoniae; assay: Antibacterial activity against Klebsiella pneumoniae isolate Kp204 harboring IncA/C plasmid and blaIMP-4-qacG2-aacA4-catB3 array by Etest method
[2] = tested on: Morganella morganii; assay: Antibacterial activity against Morganella morganii isolate Mm1229 harboring IncL/M plasmid and blaIMP-4-qacG2-aacA4-catB3 array by Etest method
[3] = tested on: Klebsiella pneumoniae; assay: Antibacterial activity against Klebsiella pneumoniae isolate Kp3799 harboring IncL/M plasmid and blaIMP-4-qacG2-aacA4-catB3 array by Etest method
[4] = tested on: Escherichia coli; assay: Antibacterial activity against Escherichia coli isolate Ec158 harboring IncA/C plasmid and blaIMP-4-qacG2-aacA4-catB3 array by Etest method
[5] = tested on: Serratia marcescens; assay: Antibacterial activity against Serratia marcescens isolate Sm2723 harboring IncL/M plasmid and blaIMP-4-qacG2-aacA4-catB3 array by Etest method
[6] = tested on: Klebsiella pneumoniae; assay: Antibacterial activity against Klebsiella pneumoniae isolate Kp4614
[7] = tested on: Klebsiella pneumoniae; assay: Antibacterial activity against Klebsiella pneumoniae isolate Kp38009 harboring IncL/M plasmid and blaIMP-4-qacG2-aacA4-catB3 array by Etest method
[8] = tested on: Serratia marcescens; assay: Antibacterial activity against Serratia marcescens isolate Sm211 harboring IncA/C plasmid and blaIMP-4-qacG2-aacA4-catB3 array by Etest method
[9] = tested on: Klebsiella oxytoca; assay: Antibacterial activity against Klebsiella oxytoca isolate Ko238 harboring IncA/C plasmid and blaIMP-4-qacG2-aacA4-catB3 array by Etest method
[10] = tested on: Citrobacter amalonaticus; assay: Antibacterial activity against Citrobacter amalonaticus isolate Ca38009 harboring IncL/M plasmid and blaIMP-4-qacG2-aacA4-catB3 array by Etest method
[11] = tested on: Escherichia coli; assay: Antibacterial activity against Escherichia coli isolate Ec211 harboring IncA/C plasmid and blaIMP-4-qacG2-aacA4-catB3 array by Etest method
[12] = tested on: Morganella morganii; assay: Antibacterial activity against Morganella morganii isolate Mm38009 harboring IncL/M plasmid and blaIMP-4-qacG2-aacA4-catB3 array by Etest method
[13] = tested on: Serratia marcescens; assay: Antibacterial activity against Serratia marcescens isolate Sm220 harboring IncA/C plasmid and blaIMP-4-qacG2-aacA4-catB3 array by Etest method
[14] = tested on: Klebsiella pneumoniae; assay: Antibacterial activity against Klebsiella pneumoniae isolate Kp211 harboring IncA/C plasmid and blaIMP-4-qacG2-aacA4-catB3 array by Etest method
[15] = tested on: Acinetobacter baumannii; assay: Antibacterial activity against Acinetobacter baumannii isolate AbN450 harboring […]-qacG2-aacA4-catB3 array by Etest method
[16] = tested on: Escherichia coli; assay: Antibacterial activity against Escherichia coli isolate Ec221 harboring IncA/C plasmid and blaIMP-4-qacG2-aacA4-catB3 array by Etest method
[17] = tested on: Klebsiella pneumoniae; assay: Antibacterial activity against Klebsiella pneumoniae isolate Kp38045 harboring IncL/M plasmid and blaIMP-4-qacG2-aacA4-catB3 array by Etest method
[18] = tested on: Escherichia coli; assay: Antibacterial activity against Escherichia coli isolate Ec9381 harboring IncL/M plasmid and blaIMP-4-qacG2-aacA4-catB3 array by Etest method
[19] = tested on: Citrobacter koseri; assay: Antibacterial activity against Citrobacter koseri isolate Ck211 harboring IncA/C plasmid and blaIMP-4-qacG2-aacA4-catB3 array by Etest method
[20] = tested on: Acinetobacter; assay: Antibacterial activity against Acinetobacter isolate A74510 harboring blaIMP-4-qacG2-aacA4-catB3 array by Etest method
[21] = tested on: Citrobacter amalonaticus; assay: Antibacterial activity against Citrobacter amalonaticus isolate Ca1614 harboring IncL/M plasmid and blaIMP-4-qacG2-aacA4-catB3 array by Etest method
[22] = tested on: Citrobacter freundii; assay: Antibacterial activity against Citrobacter freundii isolate Cf1614 harboring IncL/M plasmid and blaIMP-4-qacG2-aacA4-catB3 array by Etest method
[23] = tested on: Morganella morganii; assay: Antibacterial activity against Morganella morganii isolate Mm1614 harboring IncL/M plasmid and blaIMP-4-qacG2-aacA4-catB3 array by Etest method
[24] = tested on: Klebsiella pneumoniae; assay: Antibacterial activity against Klebsiella pneumoniae isolate Kp1239 harboring IncL/M plasmid and blaIMP-4-qacG2-aacA4-catB3 array by Etest method
[25] = tested on: Klebsiella pneumoniae; assay: Antibacterial activity against Klebsiella pneumoniae isolate Kp7564 harboring IncL/M plasmid and blaIMP-4-qacG2-aacA4-catB3 array by Etest method
[26] = tested on: Serratia marcescens; assay: Antibacterial activity against Serratia marcescens isolate Sm201 harboring IncA/C plasmid and blaIMP-4-qacG2-aacA4-catB3 array by Etest method
[27] = tested on: Klebsiella pneumoniae; assay: Antibacterial activity against Klebsiella pneumoniae isolate Kp266 harboring IncA/C plasmid and blaIMP-4-qacG2-aacA4-catB3 array by Etest method
[28] = tested on: Serratia marcescens; assay: Antibacterial activity against Serratia marcescens isolate Sm265 harboring IncA/C plasmid and blaIMP-4-qacG2-aacA4-catB3 array by Etest method
[29] = tested on: Klebsiella pneumoniae; assay: Antibacterial activity against Klebsiella pneumoniae isolate Kp2730 harboring IncL/M plasmid and blaIMP-4-qacG2-aacA4-catB3 and dfrA12-orfF-aadA2 arrays by Etest method
[30] = tested on: Klebsiella pneumoniae; assay: Antibacterial activity against Klebsiella pneumoniae isolate Kp1945 harboring IncL/M plasmid and blaIMP-4-qacG2-aacA4-catB3 and dfrA12-orfF-aadA2 arrays by Etest method
[31] = tested on: Klebsiella oxytoca; assay: Antibacterial activity against Klebsiella oxytoca isolate Ko0426 harboring IncL/M plasmid and blaIMP-4-qacG2-aacA4-catB3 array by Etest method
[32] = tested on: Citrobacter amalonaticus; assay: Antibacterial activity against Citrobacter amalonaticus isolate Ca3927 harboring IncL/M plasmid and blaIMP-4-qacG2-aacA4-catB3 array by Etest method
[33] = tested on: Serratia marcescens; assay: Antibacterial activity against Serratia marcescens isolate Sm203 harboring IncA/C plasmid and blaIMP-4-qacG2-aacA4-catB3 array by Etest method
[34] = tested on: Citrobacter youngae; assay: Antibacterial activity against Citrobacter youngae isolate CyB38 harboring blaIMP-4-qacG2-aacA4-catB3 array by Etest method
[35] = tested on: Klebsiella pneumoniae; assay: Antibacterial activity against Klebsiella pneumoniae isolate Kp149 harboring IncA/C plasmid and blaIMP-4-qacG2-aacA4-catB3 array by Etest method
[36] = tested on: Klebsiella oxytoca; assay: Antibacterial activity against Klebsiella oxytoca isolate Ko1156 harboring IncL/M plasmid and blaIMP-4-qacG2-aacA4-catB3 array by Etest method

Q: With `C[C@H]1[C@H](NC(=O)/C(=N\OC(C)(C)C(=O)O)c2csc(N)n2)C(=O)N1S(=O)(=O)O` [AZTREONAM] as the compound, how does the MIC [1] read?
A: ≤ 1 µg/mL

Q: And the MIC [2]?
A: ≤ 1 µg/mL

Q: What about the MIC [3] of the same compound?
A: ≤ 1 µg/mL

Q: What about the MIC [4] of the same compound?
A: ≤ 1 µg/mL

Q: And the MIC [5]?
A: ≤ 1 µg/mL

Q: What about the MIC [6] of the same compound?
A: ≤ 1 µg/mL

Q: And the MIC [7]?
A: ≤ 1 µg/mL

Q: What about the MIC [8] of the same compound?
A: ≤ 1 µg/mL

Q: And the MIC [9]?
A: ≤ 1 µg/mL

Q: And the MIC [10]?
A: ≤ 1 µg/mL

Q: What about the MIC [11] of the same compound?
A: ≤ 1 µg/mL

Q: And the MIC [12]?
A: ≤ 1 µg/mL

Q: What about the MIC [13] of the same compound?
A: ≤ 1 µg/mL

Q: What about the MIC [14] of the same compound?
A: ≤ 1 µg/mL

Q: And the MIC [15]?
A: > 16 µg/mL

Q: And the MIC [16]?
A: ≤ 1 µg/mL

Q: What about the MIC [17] of the same compound?
A: ≤ 1 µg/mL

Q: What about the MIC [18] of the same compound?
A: ≤ 1 µg/mL

Q: What about the MIC [19] of the same compound?
A: ≤ 1 µg/mL

Q: And the MIC [20]?
A: > 16 µg/mL

Q: What about the MIC [21] of the same compound?
A: > 16 µg/mL

Q: And the MIC [22]?
A: > 16 µg/mL

Q: And the MIC [23]?
A: 4 µg/mL (≈ 9.19 µM)

Q: What about the MIC [24] of the same compound?
A: ≤ 1 µg/mL

Q: What about the MIC [25] of the same compound?
A: ≤ 1 µg/mL

Q: And the MIC [26]?
A: ≤ 1 µg/mL

Q: And the MIC [27]?
A: ≤ 1 µg/mL

Q: And the MIC [28]?
A: ≤ 1 µg/mL

Q: And the MIC [29]?
A: ≤ 1 µg/mL

Q: And the MIC [30]?
A: ≤ 1 µg/mL

Q: What about the MIC [31] of the same compound?
A: ≤ 1 µg/mL

Q: And the MIC [32]?
A: > 16 µg/mL

Q: And the MIC [33]?
A: ≤ 1 µg/mL

Q: And the MIC [34]?
A: ≤ 1 µg/mL

Q: What about the MIC [35] of the same compound?
A: > 16 µg/mL

Q: What about the MIC [36] of the same compound?
A: ≤ 1 µg/mL

Q: With `O=C(O)c1cn(C2CC2)c2cc(N3CCNCC3)c(F)cc2c1=O` [CIPROFLOXACIN] as the compound, how does the MIC [2] read?
A: ≤ 0.5 µg/mL

Q: What about the MIC [4] of the same compound?
A: ≤ 0.5 µg/mL

Q: And the MIC [5]?
A: > 2 µg/mL

Q: What about the MIC [8] of the same compound?
A: 2 µg/mL (≈ 6.04 µM)

Q: What about the MIC [9] of the same compound?
A: ≤ 0.5 µg/mL

Q: And the MIC [10]?
A: ≤ 0.5 µg/mL

Q: What about the MIC [11] of the same compound?
A: ≤ 0.5 µg/mL

Q: What about the MIC [12] of the same compound?
A: ≤ 0.5 µg/mL

Q: What about the MIC [13] of the same compound?
A: 2 µg/mL (≈ 6.04 µM)

Q: What about the MIC [15] of the same compound?
A: > 2 µg/mL

Q: What about the MIC [16] of the same compound?
A: ≤ 0.5 µg/mL

Q: What about the MIC [18] of the same compound?
A: ≤ 0.5 µg/mL

Q: What about the MIC [19] of the same compound?
A: ≤ 0.5 µg/mL

Q: And the MIC [20]?
A: > 2 µg/mL

Q: What about the MIC [21] of the same compound?
A: ≤ 0.5 µg/mL

Q: What about the MIC [22] of the same compound?
A: ≤ 0.5 µg/mL

Q: And the MIC [23]?
A: ≤ 0.5 µg/mL

Q: And the MIC [26]?
A: > 2 µg/mL

Q: What about the MIC [28] of the same compound?
A: ≤ 0.5 µg/mL

Q: What about the MIC [31] of the same compound?
A: ≤ 0.5 µg/mL

Q: What about the MIC [32] of the same compound?
A: ≤ 0.5 µg/mL

Q: And the MIC [33]?
A: 2 µg/mL (≈ 6.04 µM)

Q: What about the MIC [34] of the same compound?
A: > 2 µg/mL

Q: And the MIC [36]?
A: ≤ 0.5 µg/mL
